Data reported in patent US10195185B2, “3-(1H-imidazo[4,5-C]pyridin-2-yl)-1H-pyrazolo[4,3-B]pyridines and therapeutic uses thereof” (Samumed, LLC, priority 2015, dated 2019).

Columns and labels:
Type in all cases: cell-based
[1] = test system: Wnt activity (Wnt-responsive human Sp5 promoter, TCF/LEF binding sites) in SW480 colon carcinoma cells; test: Wnt activity screening assay: Sp5-Luc luciferase reporter gene in SW480 cells; details: for EC50: 10-point dose-response from 10 μM, incubated overnight; for inhibition at 10 µM: given for EC50 of >10 μM, read-out: percent inhibition at 10 μM
In short: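 First, hygromycin-selected SW480 Sp5-Luc reporter cells are seeded in medium with 1% fetal bovine serum and exposed overnight to compound (up to 10 μM, 0.1% DMSO). Next, luciferase signal is read by luminescence. Finally, EC50 is fitted, or percent inhibition at 10 μM is reported above 10 μM.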

SW480 colon cancer cells = test: Cell viability assay (CellTiter-Blue), four days; details: Homo sapiens, 96 h; for inhibition at 10 µM: read-out: percent inhibition at 10 μM (given for EC50 of >10 μM); for EC50: CellTiter-Blue cell viability
In short: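 SW480 cells (~2×10^3 per well) were exposed to compound for four days at 37 °C/5% CO2, using 8-point 1:3 dilutions from 10 μM to 0.0045 μM in duplicate. Viability was read by resazurin reduction (CellTiter-Blue, ~3 h, Ex 560/Em 590 nm). EC50 came from non-linear regression; above 10 μM, percent inhibition at 10 μM is given.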

[2] = test system: Primary human fibroblasts derived from IPF patients (LL29 cells) treated with TGF-β1; test: Inhibition of the fibrotic process: αSMA staining in TGF-β1 treated fibroblasts; details: Fibroblast, 96 h, LL29 fibroblasts treated with TGF-β1, 4 days
In short: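 LL29 cells plated in F12 with 1% FBS, compounds added as 11-point 1:2 series (10 μM to 1.87 nM, 0.1% DMSO), then TGF-β1 20 ng/mL; 4 days at 37 °C. Fixed, αSMA immunostained, imaged; SYTOX-positive cells excluded. % αSMA-positive cells normalized to TGF-β1 wells; EC50 by non-linear regression, or % inhibition at 10 μM.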

Structure (SMILES) | EC50 [1] | inhibition at 10 µM [1] | inhibition at 10 µM (SW480 colon cancer cells) | EC50 (SW480 colon cancer cells) | EC50 [2] | inhibition at 10 µM ([2]; read-out: percent inhibition in brackets beside EC50 >10 μM)
Cc1cn(-c2nccc3[nH]c(-c4n[nH]c5ccc(-c6cncc(OCCN(C)C)c6)nc45)nc23)cn1 [Compound 627, N,N-Dimethyl-2-((5-(3-(4-(4-methyl-1H-imidazol-1-yl)-1H-imidazo[4,5-c]pyridin-2-yl)-1H-pyrazolo[4,3-b]pyridin-5-yl)pyridin-3-yl)oxy)ethan-1-amine] | > 10 µM | 11.8% | 8.2% | > 10 µM | 4.37 µM | 
Fc1cccc(-c2nccc3[nH]c(-c4n[nH]c5ccc(-c6cnccn6)nc45)nc23)c1 [Compound 520, 3-(4-(3-Fluorophenyl)-1H-imidazo[4,5-c]pyridin-2-yl)-5-(pyrazin-2-yl)-1H-pyrazolo[4,3-b]pyridine] | > 10 µM | 12.2% | 6.6% | > 10 µM | > 10 µM | 2.4%
Cc1ccc(-c2nccc3[nH]c(-c4n[nH]c5ccc(-c6cncc(NC(=O)C(C)C)c6)nc45)nc23)s1 [Compound 401, N-(5-(3-(4-(5-Methylthiophen-2-yl)-1H-imidazo[4,5-c]pyridin-2-yl)-1H-pyrazolo [4,3-b]pyridin-5-yl)pyridin-3-yl)isobutyramide] | > 10 µM | 17.2% | 2.5% | > 10 µM | 2.52 µM | 
CCNCc1cncc(-c2ccc3[nH]nc(-c4nc5c(-c6cc(F)cc(NCCN(C)C)c6)nccc5[nH]4)c3n2)c1 [Compound 454, N^1-(3-(2-(5-(5-((Ethylamino)methyl)pyridin-3-yl)-1H-pyrazolo[4,3-b]pyridin-3-yl)-1H-imidazo[4,5-c]pyridin-4-yl)-5-fluorophenyl)-N^2,N^2-dimethylethane-1,2-diamine] | 9.95 µM |  |  | 6.6 µM | 3.68 µM | 
c1cc(-c2nccc3[nH]c(-c4n[nH]c5ccc(-c6cncc(OC7CCNCC7)c6)nc45)nc23)ccn1 [Compound 576, 5-(5-(Piperidin-4-yloxy)pyridin-3-yl)-3-(4-(pyridin-4-yl)-1H-imidazo[4,5-c]pyridin-2-yl)-1H-pyrazolo[4,3-b]pyridine] | > 10 µM | 17.9% | 24.6% | > 10 µM | 2.39 µM | 
CC(C)Nc1cncc(-c2ccc3[nH]nc(-c4nc5c(-c6cc(F)cc(NCCN(C)C)c6)nccc5[nH]4)c3n2)c1 [Compound 460, N^1-(3-Fluoro-5-(2-(5-(5-(isopropylamino)pyridin-3-yl)-1H-pyrazolo[4,3-b]pyridin-3-yl)-1H-imidazo[4,5-c]pyridin-4-yl)phenyl)-N^2,N^2-dimethylethane-1,2-diamine] | 1.03 µM |  |  | 0.585 µM | 0.732 µM | 
